Molecules are shown by their SMILES. “Also recorded” adds a separate entry of the source.

Data set [1] relates to adult rat ventricular myocytes. Format: cell-based.
The next data set relates to Wistar-Han rats. Format: in vivo, rat. As to conditions: rat, in vivo, iv.
Data set [2] relates to adult rat ventricular cardiomyocytes. Put plainly: Calcium imaging (SCR events) in isolated rat cardiomyocytes. Format: cell-based. The procedure:
Eleven-week-old Wistar Han rats were euthanized by intraperitoneal (i.p.) injection of a lethal dose of pentobarbital (140 mg/kg, Euthasol®). Subsequently, the hearts were quickly excised and rinsed in cold calcium-free Tyrode solution with the following composition (in mM): 118 NaCl, 4.17 KCl, 1.2 MgSO4, 1.2 KH2PO4, 21 NaHCO3, 11 glucose, and 5 taurine, at pH 7.4. The aorta was promptly cannulated, and the hearts were perfused in a retrograde fashion with warm (37–38°C) Tyrode containing 1.25 mM CaCl2 to flush the coronary arteries of blood and then with a Tyrode solution supplemented with 1 mg/mL collagenase type 2 (Worthington Biochemical Corp, Lakewood, NJ) and 0.2 U.mL^−1 protease type XIV (Sigma, Poole, UK) during 15–20 min. Once enzymatic digestion is completed, ventricles were shredded into small pieces with surgical scissors in 0.5 mM Ca^2+ Tyrode solution, filtered through a 200-µm mesh, and then resuspended in 1 mM Ca^2+ Tyrode solution for 1 h at RT. Isolated cardiomyocytes were incubated in the dark with Fura-2-AM calcium probe (2 µM in 20% v/v DMSO; Life Technologies) for 15 min. Cardiomyocytes were then loaded onto the IonOptix system (IonOptix Corporation, U.S.A.) and perfused with warm (37°C) Tyrode solution. Cardiomyocytes were stimulated at 0.5 Hz using a MyoPacer field stimulator (20 V, 7 ms) to achieve steady state. Fura-2 fluorescence (F) at 510 nm was used to measure cytoplasmic Ca^2+ concentration variation by exciting with UV light at 340 and 380 nm. Cells were paced for 1 to 2 min, ensuring stabilization of the signals, and the effects of the peptides were measured at the end of a 5 min application time. 30-s-long periods were used as the unit duration (representing 15 Ca^2+ transients) during control and after the perfusion of the compound to count the number of arrhythmogenic transients.

In data set [3] the test system is human iPS-derived cardiomyocytes. Put plainly: Automated patch-clamp of Na+ current in human iPS-derived cardiomyocytes. Format: cell-based. Here is the method: The control hiPSC cell line (ITXi002-A; IRX5-Wt[16]; RRID:CVCL_B5QD) was generated from primary dermal fibroblasts and previously characterized.[17–19] hiPSCs were maintained at 37°C, 5% CO2, 21% O2 in StemMacs PSC-Brew XF human medium (Miltenyi Biotec, #130-127-865) on culture plates coated with 0.05 mg/mL Matrigel hESC-Qualified Matrix (Corning, #354277) in DMEM F12 (Gibco, #11320033). At 75% confluency, the cells were passaged using the Gentle Cell Dissociation Reagent (StemCell Technologies, #07174).
We generated right ventricular-like cardioids on 96-well low-attachment plates using the Schmidt et al. (2023) protocol.[20] At D15.5, cardioids were pooled, dissociated, and replated as a monolayer in MW12 plates (Falcon, #353047) coated with Matrigel (Corning, #354277) for automated patch-clamp, and as single cells in 35-mm Petri dishes (NUNC #055055) coated with Matrigel for manual patch-clamp. Immediately before patch-clamp recording, cardiomyocytes were single-cell dissociated using Accutase (Sigma, #A6964).
For human iPSC-derived cardiomyocytes recordings, cells were resuspended at 300 000 cells/mL in a solution composed of 50% culture media and 50% extracellular buffer containing (in mM) 140 NaCl, 4 KCl, 2 CaCl2, 1 MgCl2, 5 glucose, and 10 HEPES (pH 7.4, osmolarity 298 mOsm) supplemented with 5 µM nifedipine. Single-hole, low-resistance chips (3–5 MΩ) were used. The intracellular solution contained (in mM) 10 KCl, 110 KF, 10 NaCl, 1 MgCl2, 1 CaCl2, 10 Ethylene Glycol Tetra-acetic Acid (EGTA), and 10 HEPES (pH 7.2, osmolarity 280 mOsm). Currents were recorded and analysed as previously described for stable cell lines.
Background: Patch clamp records ionic current or voltage across a cell membrane.

The conditions of data set [4]: rat, in vivo, iv.
In the next data set the target is hNav1.6 (Homo sapiens, UniProt Q9UQD0). Format: cell-based.
Sequence of hNav1.6 (Q9UQD0 other isoform, or with tags, fused parts or gaps): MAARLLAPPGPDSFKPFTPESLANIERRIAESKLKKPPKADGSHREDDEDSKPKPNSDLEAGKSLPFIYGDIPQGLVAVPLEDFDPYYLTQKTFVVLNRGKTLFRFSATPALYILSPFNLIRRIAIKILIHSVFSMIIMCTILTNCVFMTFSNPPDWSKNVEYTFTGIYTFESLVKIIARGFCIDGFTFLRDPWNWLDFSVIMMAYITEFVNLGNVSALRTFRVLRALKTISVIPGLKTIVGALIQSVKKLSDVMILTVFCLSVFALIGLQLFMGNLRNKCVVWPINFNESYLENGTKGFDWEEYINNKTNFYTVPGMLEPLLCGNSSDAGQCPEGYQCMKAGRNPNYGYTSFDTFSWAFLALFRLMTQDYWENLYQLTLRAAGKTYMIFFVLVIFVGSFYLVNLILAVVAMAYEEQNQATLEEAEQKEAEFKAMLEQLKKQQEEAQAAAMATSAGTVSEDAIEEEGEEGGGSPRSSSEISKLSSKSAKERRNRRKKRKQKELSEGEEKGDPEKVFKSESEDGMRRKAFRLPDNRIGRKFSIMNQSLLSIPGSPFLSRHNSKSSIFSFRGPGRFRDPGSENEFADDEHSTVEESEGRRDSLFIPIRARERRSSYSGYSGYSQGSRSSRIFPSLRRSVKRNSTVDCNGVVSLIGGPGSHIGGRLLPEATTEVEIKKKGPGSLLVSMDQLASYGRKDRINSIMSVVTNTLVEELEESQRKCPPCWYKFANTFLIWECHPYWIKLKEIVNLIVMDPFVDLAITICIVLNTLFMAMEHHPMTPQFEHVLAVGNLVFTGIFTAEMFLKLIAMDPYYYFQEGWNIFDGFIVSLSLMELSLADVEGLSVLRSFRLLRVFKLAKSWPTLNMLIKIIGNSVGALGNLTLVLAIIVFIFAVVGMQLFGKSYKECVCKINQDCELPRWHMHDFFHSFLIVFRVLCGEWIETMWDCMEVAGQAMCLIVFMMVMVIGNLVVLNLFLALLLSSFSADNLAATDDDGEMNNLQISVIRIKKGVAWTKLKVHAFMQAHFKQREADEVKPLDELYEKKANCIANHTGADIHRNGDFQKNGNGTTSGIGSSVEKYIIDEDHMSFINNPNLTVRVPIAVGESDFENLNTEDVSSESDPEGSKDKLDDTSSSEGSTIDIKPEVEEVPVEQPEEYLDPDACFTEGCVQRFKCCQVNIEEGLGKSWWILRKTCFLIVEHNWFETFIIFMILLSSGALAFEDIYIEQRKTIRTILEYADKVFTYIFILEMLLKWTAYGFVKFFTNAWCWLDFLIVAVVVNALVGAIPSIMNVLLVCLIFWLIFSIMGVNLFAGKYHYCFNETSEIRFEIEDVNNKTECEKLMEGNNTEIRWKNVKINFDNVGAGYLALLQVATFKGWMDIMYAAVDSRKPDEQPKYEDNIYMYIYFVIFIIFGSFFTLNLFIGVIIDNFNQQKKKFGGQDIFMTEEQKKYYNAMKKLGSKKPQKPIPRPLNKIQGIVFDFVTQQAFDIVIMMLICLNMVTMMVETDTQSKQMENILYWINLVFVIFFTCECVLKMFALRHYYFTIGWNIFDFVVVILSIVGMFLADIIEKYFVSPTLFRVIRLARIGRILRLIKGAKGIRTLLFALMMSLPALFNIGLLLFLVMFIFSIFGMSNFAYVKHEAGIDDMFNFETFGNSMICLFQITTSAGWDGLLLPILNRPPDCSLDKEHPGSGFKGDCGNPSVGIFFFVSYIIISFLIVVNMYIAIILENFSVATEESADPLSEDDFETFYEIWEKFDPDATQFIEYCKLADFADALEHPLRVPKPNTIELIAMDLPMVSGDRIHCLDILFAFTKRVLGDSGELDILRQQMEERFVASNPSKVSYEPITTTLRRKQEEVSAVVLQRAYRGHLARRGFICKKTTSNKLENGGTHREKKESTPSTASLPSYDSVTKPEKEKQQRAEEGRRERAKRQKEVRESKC
For a further data set, the system named is isolated rat heart. Put plainly: Ex vivo cardiac electrophysiological recordings (Langendorff, MEA). Here is the method: Eleven-week-old Wistar-Han rats were first heparinized (heparin sodium, 0.5 U/g i.p.) and then euthanized by i.p. injection of 140 mg/kg pentobarbital (Euthasol®). Hearts were quickly excised and immersed in a cold modified Krebs-Henseleit solution (in mM): 116 NaCl, 5 KCl, 1.1 MgSO4, 7 H2O, 0.35 NaH2PO4, 27 NaHCO3, 10 glucose, and pH 7.4. The aorta was cannulated, and the hearts were perfused on a Langendorff system with warm (36.5–37.5°C) and oxygenated (95% O2/5% CO2) Krebs-Henseleit solution supplemented with 1.8 mM CaCl2, 1 mM lactate, and 0.2 mM pyruvate (control solution) at a constant flow rate of 12 mL/min. Once connected to the Langendorff perfusion system, hearts were perfused with control solution for 10 min to stabilize their activities. Electrical activity of the upper part of the right ventricle was assessed using a 64-electrode array (0.2-mm electrode diameter; 0.36-mm interelectrode distance) connected to an EMS64-USB-1002 amplifier. Single-lead ECG was acquired to monitor global cardiac electrical activity. Data were sampled at 10 kHz per channel and acquired by EMapRecord5 (Mappinglab, Oxford, UK). Data were obtained at baseline (2 min before compound perfusion) and during AaH-II* perfusion for 10 min at various concentrations. Data were analysed using EMapScope5 (Mappinglab, Oxford, UK). Activation times were determined as the point of maximal negative slope. All activation times were related to the timing of the first detected waveform and then used to draw activation maps. An average of three complexes was used for activation time and conduction velocity analyses, while interbeat interval was measured as the average of 10 consecutive intervals. The index of inhomogeneity was calculated as previously described.[23] Arrhythmias were quantified over a period of 2 min in control and after peptide perfusion.

`NC1=N[C@H](O)[C@H]2[C@H]3O[C@]4(O)O[C@@H]([C@@H](O)[C@@]2(N1)[C@@H]4O)[C@]3(O)CO` [TTX, tetrodotoxin]: in data set [1], the “block of AaH-II* responses” value is “blocked”. For the same compound, in the data set with Wistar-Han rats, the P wave is reported as 16.3 ± 1.4 ms, the PR is on record as 48.5 ± 3.3 ms, the QRS is reported as 18.2 ± 0.7 ms and the QTc stood at 45.9 ± 2.2. In addition, in the data set with Wistar-Han rats, the RR worked out at 194.7 ± 9.3 ms, the RR interval result is reported as “increases the RR interval progressively with increasing doses”, the T wave area amounted to 1.1 ± 0.1 mV/ms and the “arrhythmic rats (rats / all rats)” value is “clearly non-arrhythmic”. In addition, in data set [2], the “calcium transient amplitude and time to peak” value is “reduce the amplitude and increase the time to peak of regular calcium transients moderately”; the “cells presenting SCR events (SCR cells / cells)” value is “does not by itself trigger the appearance of SCR events”. Also, in data set [3], the “block of AaH-II*-triggered INaL” value was “entirely blocked; also recorded: fully blocked”. The compound further gave a circulating plasmatic concentration in data set [4] of 403 ± 44 nM. Also, at hNav1.6, the “block of AaH-II*-modified hNav1.6 currents” value is “complete block of hNav1.6 currents”. In the data set with isolated rat heart, the “interbeat interval (bradycardia)” value is on record as “small bradycardic effect” and the “ventricular conduction velocity / activation time” value is reported as “unaffected; also recorded: does not affect ventricular conduction velocity”.

For the origin of these results see PMC13598332, “Selective activation of tetrodotoxin-sensitive sodium channels by AaH-II drives arrhythmogenic late Na^+ current in the heart” (Europace, 2026).
